{"source": "ChEMBL document CHEMBL6071206", "about": "“Development of BODIPY FL SNS 032 as a Versatile Probe for Constitutive Androstane Receptor and Multiple Kinases” (ACS Med Chem Lett, 2024)", "key": {"[1]": {"target": "T1, Nuclear receptor subfamily 1 group I member 3 (Homo sapiens, UniProt Q14994)", "T1 sequence (Q14994 whole entry)": "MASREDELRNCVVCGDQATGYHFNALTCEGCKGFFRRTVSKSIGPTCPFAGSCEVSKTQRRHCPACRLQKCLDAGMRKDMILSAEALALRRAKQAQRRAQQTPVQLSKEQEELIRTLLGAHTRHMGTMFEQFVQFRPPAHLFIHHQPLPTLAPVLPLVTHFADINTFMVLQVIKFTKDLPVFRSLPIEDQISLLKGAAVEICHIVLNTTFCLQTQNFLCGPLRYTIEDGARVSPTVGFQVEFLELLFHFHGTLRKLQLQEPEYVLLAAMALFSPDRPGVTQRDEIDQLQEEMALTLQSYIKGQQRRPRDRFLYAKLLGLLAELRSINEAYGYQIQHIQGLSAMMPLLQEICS", "assay": "Inhibition of GST-tagged human CAR LBD incubated for 90 mins by TR-FRET assay"}, "[2]": {"target": "T1, Nuclear receptor subfamily 1 group I member 3", "assay": "Inhibition of GST-tagged human CAR LBD at 100 uM incubated for 90 mins in presence of Cy5-PGC1-alpha by HTRF co-activator assay relative to control", "details": "1.5 h, read-out: Imax; call rule not given here"}, "[3]": {"target": "T1, Nuclear receptor subfamily 1 group I member 3", "assay": "Inhibition of GST-tagged human CAR LBD incubated for 90 mins in presence of Cy5-PGC1-alpha by HTRF co-activator assay"}, "[4]": {"target": "T2, Calcium/calmodulin-dependent protein kinase kinase 2 (Homo sapiens, UniProt Q96RR4)", "assay": "Inhibition of GST-tagged human CAMKK2 incubated for 90 mins by TR-FRET assay"}, "[5]": {"target": "T3, Mitogen-activated protein kinase 15 (Homo sapiens, UniProt Q8TD08)", "T3 sequence (Q8TD08 whole entry)": "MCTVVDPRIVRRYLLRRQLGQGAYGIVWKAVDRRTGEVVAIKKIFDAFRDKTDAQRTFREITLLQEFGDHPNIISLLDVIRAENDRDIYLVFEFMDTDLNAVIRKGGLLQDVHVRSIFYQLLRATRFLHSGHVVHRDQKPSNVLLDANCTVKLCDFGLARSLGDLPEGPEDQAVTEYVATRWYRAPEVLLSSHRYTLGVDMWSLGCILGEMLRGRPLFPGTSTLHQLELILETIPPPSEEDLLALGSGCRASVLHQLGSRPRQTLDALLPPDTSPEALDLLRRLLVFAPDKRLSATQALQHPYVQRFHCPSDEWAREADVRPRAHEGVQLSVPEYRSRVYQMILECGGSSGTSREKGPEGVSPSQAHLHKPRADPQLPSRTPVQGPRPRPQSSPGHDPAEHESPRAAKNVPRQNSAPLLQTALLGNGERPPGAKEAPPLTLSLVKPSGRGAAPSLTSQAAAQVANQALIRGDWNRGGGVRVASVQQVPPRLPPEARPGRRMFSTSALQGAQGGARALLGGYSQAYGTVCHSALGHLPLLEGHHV", "assay": "Inhibition of Flag/His-tagged human MAPK15 incubated for 90 mins by TR-FRET assay"}, "[6]": {"target": "T1, Nuclear receptor subfamily 1 group I member 3", "assay": "Inhibition of GST-tagged human CAR LBD assessed as FRET signal stability measured for 90 to 180 mins incubated for 90 mins by TR-FRET assay", "details": "time 90-180 min"}, "[7]": {"target": "T1, Nuclear receptor subfamily 1 group I member 3", "assay": "Inhibition of GST-tagged human CAR LBD at 3 uM incubated for 90 mins in presence of Cy5-PGC1-alpha by HTRF co-activator assay relative to control", "details": "1.5 h, read-out: Imax"}, "[8]": {"target": "T1, Nuclear receptor subfamily 1 group I member 3", "assay": "Inhibition of GST-tagged human CAR LBD at 30 uM incubated for 90 mins in presence of Cy5-PGC1-alpha by HTRF co-activator assay relative to control", "details": "1.5 h, read-out: Imax"}, "[9]": {"target": "CDK9/cyclin T1 (Homo sapiens) (UniProt O60563+P50750)", "assay": "Inhibition of His-tagged human CDK9/CycT1 incubated for 90 mins by TR-FRET assay relative to control", "format": "protein-complex assay"}, "[10]": {"target": "T2, Calcium/calmodulin-dependent protein kinase kinase 2", "assay": "Binding affinity to GST-tagged human CAMKK2 assessed as fold change in FRET signal at 30 uM incubated for 90 mins by TR-FRET assay relative to control"}, "[11]": {"target": "T4, Peripheral plasma membrane protein CASK (Homo sapiens) (UniProt O14936)", "T4 sequence (whole entry)": "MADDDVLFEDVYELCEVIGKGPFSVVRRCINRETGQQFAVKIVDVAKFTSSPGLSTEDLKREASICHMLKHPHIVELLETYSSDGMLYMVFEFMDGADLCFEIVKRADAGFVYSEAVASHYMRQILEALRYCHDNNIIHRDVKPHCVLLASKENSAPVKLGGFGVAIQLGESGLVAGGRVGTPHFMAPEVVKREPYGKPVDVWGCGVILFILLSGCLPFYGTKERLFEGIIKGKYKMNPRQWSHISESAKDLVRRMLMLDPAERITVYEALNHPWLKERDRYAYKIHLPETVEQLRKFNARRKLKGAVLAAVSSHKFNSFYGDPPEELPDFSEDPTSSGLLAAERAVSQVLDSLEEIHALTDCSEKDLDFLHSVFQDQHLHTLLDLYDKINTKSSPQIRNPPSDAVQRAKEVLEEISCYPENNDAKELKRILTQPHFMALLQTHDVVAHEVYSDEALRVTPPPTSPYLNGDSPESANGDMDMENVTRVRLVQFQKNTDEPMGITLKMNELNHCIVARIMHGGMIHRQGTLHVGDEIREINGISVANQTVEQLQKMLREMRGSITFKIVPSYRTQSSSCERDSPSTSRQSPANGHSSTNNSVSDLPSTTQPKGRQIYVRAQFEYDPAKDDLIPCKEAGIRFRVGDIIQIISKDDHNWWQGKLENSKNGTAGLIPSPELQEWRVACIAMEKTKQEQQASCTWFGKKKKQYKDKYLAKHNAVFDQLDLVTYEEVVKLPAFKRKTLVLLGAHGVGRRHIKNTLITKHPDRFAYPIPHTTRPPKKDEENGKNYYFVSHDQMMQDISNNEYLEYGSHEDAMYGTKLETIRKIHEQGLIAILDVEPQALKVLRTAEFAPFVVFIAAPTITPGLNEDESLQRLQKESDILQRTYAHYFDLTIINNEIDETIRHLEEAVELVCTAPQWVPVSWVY", "assay": "Inhibition of GST-tagged human CASK at 30 uM incubated for 90 mins by TR-FRET assay relative to control"}, "[12]": {"target": "Glycogen synthase kinase-3 alpha (Homo sapiens, UniProt P49840)", "sequence (P49840 whole entry)": "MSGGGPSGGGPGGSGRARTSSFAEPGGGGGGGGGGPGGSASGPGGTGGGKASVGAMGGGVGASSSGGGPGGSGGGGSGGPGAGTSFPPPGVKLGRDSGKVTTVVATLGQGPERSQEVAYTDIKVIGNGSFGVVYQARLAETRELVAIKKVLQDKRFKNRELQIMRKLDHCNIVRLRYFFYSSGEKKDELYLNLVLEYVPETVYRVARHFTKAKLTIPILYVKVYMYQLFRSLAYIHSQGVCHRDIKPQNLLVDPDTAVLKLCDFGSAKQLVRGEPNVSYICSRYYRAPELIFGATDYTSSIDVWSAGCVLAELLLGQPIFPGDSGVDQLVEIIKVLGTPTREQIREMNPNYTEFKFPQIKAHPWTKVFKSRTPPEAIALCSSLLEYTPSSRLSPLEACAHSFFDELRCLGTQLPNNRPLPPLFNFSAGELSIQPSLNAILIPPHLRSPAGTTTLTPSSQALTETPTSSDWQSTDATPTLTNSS", "assay": "Inhibition of GST-tagged human GSK3A incubated for 90 mins by TR-FRET assay"}}, "data": [{"smiles": "C[C@]12CC[C@@H](O)C[C@@H]1CC[C@@H]1[C@@H]2CC[C@]2(C)C=CC[C@@H]12", "note": "[ANDROSTENOL]", "values": [{"measurement": "IC50", "setting": "[1]", "result": 0.339, "unit": "µM"}, {"measurement": "inhibition at 100 µM", "setting": "[2]", "result": 84.7, "unit": "%"}, {"measurement": "IC50", "setting": "[3]", "result": 0.25, "unit": "µM"}]}, {"smiles": "CN1CC[C@H](c2c(O)cc(O)c3c(=O)cc(-c4ccccc4Cl)oc23)[C@H](O)C1", "note": "[ALVOCIDIB]", "values": [{"measurement": "IC50", "setting": "[4]", "result": 0.296, "unit": "µM"}, {"measurement": "Ki", "setting": "[4]", "result": 0.239, "unit": "µM"}, {"measurement": "IC50", "setting": "[5]", "result": 0.164, "unit": "µM"}, {"measurement": "Ki", "setting": "[5]", "result": 0.12, "unit": "µM"}]}, {"smiles": "Clc1ccc(-c2nc3sccn3c2/C=N/OCc2ccc(Cl)c(Cl)c2)cc1", "values": [{"measurement": "inhibition (INH)", "setting": "[6]", "result": "Active"}, {"measurement": "inhibition at 3 µM", "setting": "[7]", "result": 100, "unit": "%"}]}, {"smiles": "O=S(=O)(c1ccccc1)N(CC(F)(F)F)c1ccc(C(O)(C(F)(F)F)C(F)(F)F)cc1", "note": "[T091317]", "values": [{"measurement": "IC50", "setting": "[1]", "result": 0.651, "unit": "µM"}]}, {"smiles": "Cc1oc2ccccc2c1CNC(=O)NCc1cccs1", "values": [{"measurement": "IC50", "setting": "[1]", "result": 0.26, "unit": "µM"}]}, {"smiles": "CCOC(=O)Nc1ccc2c(c1)N(C(=O)CN(CC)CC)c1ccccc1CC2", "values": [{"measurement": "IC50", "setting": "[1]", "result": 0.162, "unit": "µM"}, {"measurement": "inhibition at 30 µM", "setting": "[8]", "result": 100, "unit": "%"}, {"measurement": "IC50", "setting": "[3]", "result": 0.258, "unit": "µM"}]}, {"smiles": "COc1cc(N2CCOCC2)ccc1Nc1ncc(F)c(Nc2ccccc2NS(C)(=O)=O)n1", "values": [{"measurement": "IC50", "setting": "[4]", "result": 0.0516, "unit": "µM"}, {"measurement": "inhibition", "setting": "[9]", "result": "< 20", "unit": "%"}, {"measurement": "fold change (FC)", "setting": "[10]", "result": 2.6}, {"measurement": "inhibition", "setting": "[11]", "result": 40.7, "unit": "%"}, {"measurement": "IC50", "setting": "[5]", "result": 2.8, "unit": "µM"}, {"measurement": "IC50", "setting": "[12]", "result": 20.2, "unit": "µM"}]}]}
